Laboratory results reported in patent publication US10208074B2, “Pyrazole compounds and method for making and using the compounds” (Rigel Pharmaceuticals, Inc., priority 2015, dated 2019).
Structures can show the parent of a compound that is named as a salt. Where two headings read alike, the source gives them in different places. Values belong to the compound of their own block, whether it stands above or below them.

Key:
IL-23p19 = test: LPS induced IL23p19 in THP-1 cells (with IFNγ primed) assay; assay type: cell-based, Human; details: THP-1 cells, IFNγ primed, LPS 1 ug/mL, 18 hours, 10 pt, read-out: IL23-p19 ELISA, THP1-IFNy, LPS, 10 pt EC50
Method in brief: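 Readout is secreted IL-23p19, quantified by chemiluminescent sandwich ELISA after 18 h LPS (1 ug/mL) stimulation of THP-1 cells that had been IFNγ-primed (50 ng/mL, ~18 h) and given compound 1 h beforehand at 37 °C. EC50 derived by curve fit; cytotoxicity tracked with Cell Titer Glo.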

IL-23 (p19/p40) = test: IL23-p19 ELISA, Dendritic, LPS (compound screening using DC cells); assay type: cell-based, Human; details: PBMC-derived DC cells, IFNγ primed, LPS 1 μg/ml, 18 hours, 10 pt, read-out: IL23-p19 ELISA, Dendritic, LPS, 10 pt, EC50
Method in brief: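 IL-23 in supernatants quantified by sandwich ELISA (anti-p19 capture, biotinylated anti-p40 detection, chemiluminescent readout) after 18 h LPS (1 μg/ml) stimulation. Cells were monocyte-derived DCs (GM-CSF/IL-4, 7 d), IFNγ-primed 24 h and given compound 1 h before LPS; viability by CellTiter Glo.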

- EC50 (IL-23p19; Homo sapiens, THP-1, 18 h): 2490 nM
- EC50 (IL-23 (p19/p40); Homo sapiens, 18 h): 537 nM
Structure (SMILES): O=C(Nc1cn(C2CCOCC2)nc1-c1nnco1)c1csc(-c2cn[nH]c2)n1 [II-75, N-(3-(1,3,4-oxadiazol-2-yl)-1-(tetrahydro-2H-pyran-4-yl)-1H-pyrazol-4-yl)-2-(1H-pyrazol-4-yl)thiazole-4-carboxamide]

- EC50 (IL-23p19; Homo sapiens, THP-1, 18 h): 90.2 nM
- EC50 (IL-23 (p19/p40); Homo sapiens, 18 h): 157 nM
Structure (SMILES): Cn1cc(NC(=O)c2csc(-c3cnn(C(=O)OC4(C)CC4)c3)n2)c(-c2ccccn2)n1 [II-5, 1-methylcyclopropyl 4-(4-((1-methyl-3-(pyridin-2-yl)-1H-pyrazol-4-yl)carbamoyl)thiazol-2-yl)-1H-pyrazole-1-carboxylate]

- EC50 (IL-23p19): 111 nM
- EC50 (IL-23 (p19/p40)): 912 nM
Structure (SMILES): CCO[C@H]1C[C@@H](n2cc(NC(=O)c3csc(-c4cnn(COP(=O)(O)O)c4)n3)c(-c3ncccc3F)n2)C1 [II-164, (4-(4-((1-((cis)-3-ethoxycyclobutyl)-3-(3-fluoropyridin-2-yl)-1H-pyrazol-4-yl)carbamoyl)thiazol-2-yl)-1H-pyrazol-1-yl)methyl disodium phosphate]

- EC50 (IL-23p19; Homo sapiens, THP-1, 18 h): 57.4 nM
- EC50 (IL-23 (p19/p40); Homo sapiens, 18 h): 98.7 nM
Structure (SMILES): CCO[C@@H]1CC[C@H](n2cc(NC(=O)c3csc(-c4cn[nH]c4)n3)c(-c3ccccn3)n2)C1 (relative stereo) [II-147, N-(1-((cis)-3-ethoxycyclopentyl)-3-(pyridin-2-yl)-1H-pyrazol-4-yl)-2-(1H-pyrazol-4-yl)thiazole-4-carboxamide]

- EC50 (IL-23p19; Homo sapiens, THP-1, 18 h): 49.1 nM
- EC50 (IL-23 (p19/p40); Homo sapiens, 18 h): 90.4 nM
Structure (SMILES): O=C(Nc1cn([C@H]2C[C@@H](OCC(F)(F)F)C2)nc1-c1cccc(F)n1)c1csc(-c2cn[nH]c2)n1 [II-170, N-(3-(6-fluoropyridin-2-yl)-1-((cis)-3-(2,2,2-trifluoroethoxy)cyclobutyl)-1H-pyrazol-4-yl)-2-(1H-pyrazol-4-yl)thiazole-4-carboxamide]

- EC50 (IL-23p19; Homo sapiens, THP-1, 18 h): 41.8 nM
- EC50 (IL-23 (p19/p40); Homo sapiens, 18 h): 85.4 nM
Structure (SMILES): COC1CC(n2cc(NC(=O)c3csc(-c4cn[nH]c4)n3)c(-c3ccccn3)n2)C1 (centres unmarked) [II-57, N-{1-(3-Methoxycyclobutyl)-3-(pyridine-2-yl)-1H-pyrazol-4-yl}-2-(1H-pyrazol-4-yl)thiazole-4-carboxamide]

- EC50 (IL-23p19; Homo sapiens, THP-1, 18 h): 96.5 nM
- EC50 (IL-23 (p19/p40); Homo sapiens, 18 h): 390 nM
Structure (SMILES): O=C(Nc1cn(C(F)F)nc1-c1ccccn1)c1csc(-c2cn[nH]c2)n1 [II-88, N-(1-(difluoromethyl)-3-(pyridin-2-yl)-1H-pyrazol-4-yl)-2-(1H-pyrazol-4-yl)thiazole-4-carboxamide]

- EC50 (IL-23p19; Homo sapiens, THP-1, 18 h): 251 nM
- EC50 (IL-23 (p19/p40); Homo sapiens, 18 h): 51.7 nM
Structure (SMILES): O=C(Nc1cn([C@H]2C[C@H](OCC(F)(F)F)C2)nc1-c1ccccn1)c1csc(-c2cn[nH]c2)n1 [II-141, 2-(1H-pyrazol-4-yl)-N-(3-(pyridin-2-yl)-1-((trans)-3-(2,2,2-trifluoroethoxy)cyclobutyl)-1H-pyrazol-4-yl)thiazole-4-carboxamide]

- EC50 (IL-23p19; Homo sapiens, THP-1, 18 h): 39.9 nM
- EC50 (IL-23 (p19/p40); Homo sapiens, 18 h): 135 nM
Structure (SMILES): O=C(Nc1cn(C2CCOCC2)nc1-c1ccccn1)c1coc(-c2cn[nH]c2)n1 [III-2, 2-(1H-pyrazol-4-yl)-N-(3-(pyridin-2-yl)-1-(tetrahydro-2H-pyran-4-yl)-1H-pyrazol-4-yl)oxazole-4-carboxamide]

- EC50 (IL-23p19; Homo sapiens, THP-1, 18 h): 224 nM
- EC50 (IL-23 (p19/p40); Homo sapiens, 18 h): 924 nM
Structure (SMILES): O=C(Nc1cn(C2C=C(F)C2)nc1-c1ccccn1)c1csc(-c2cn[nH]c2)n1 (centres unmarked) [II-132, N-(1-(3-fluorocyclobut-2-en-1-yl)-3-(pyridin-2-yl)-1H-pyrazol-4-yl)-2-(1H-pyrazol-4-yl)thiazole-4-carboxamide]

- EC50 (IL-23p19; Homo sapiens, THP-1, 18 h): 66 nM
- EC50 (IL-23 (p19/p40); Homo sapiens, 18 h): 78.4 nM
Structure (SMILES): CCO[C@H]1CC[C@H](n2cc(NC(=O)c3csc(-c4cn[nH]c4)n3)c(-c3ccccn3)n2)CC1 [II-145, N-(1-((trans)-4-ethoxycyclohexyl)-3-(pyridin-2-yl)-1H-pyrazol-4-yl)-2-(1H-pyrazol-4-yl)thiazole-4-carboxamide]

Continued, compound first:

Structure (SMILES): CCOCCn1cc(NC(=O)c2ccc(-c3cn[nH]c3)o2)c(-c2ccccn2)n1 [Compound I-37, N-(1-(2-ethoxyethyl)-3-(pyridin-2-yl)-1H-pyrazol-4-yl)-5-(1H-pyrazol-4-yl)furan-2-carboxamide formate]
- EC50 (IL-23p19; Homo sapiens, THP-1, 18 h): 144 nM
- EC50 (IL-23 (p19/p40); formate): 17.4 nM

Structure (SMILES): CN(C)[C@H]1C[C@@H](n2cc(NC(=O)c3ccc(-c4cn[nH]c4)o3)c(-c3ccccn3)n2)C1 [Compound I-34, N-(1-((1s,3s)-3-(dimethylamino)cyclobutyl)-3-(pyridin-2-yl)-1H-pyrazol-4-yl)-5-(1H-pyrazol-4-yl)furan-2-carboxamide formate]
- EC50 (IL-23p19; Homo sapiens, THP-1, 18 h): 13.8 nM
- EC50 (IL-23 (p19/p40); Homo sapiens, 18 h): 14.4 nM

Structure (SMILES): Cn1cc(NC(=O)c2ccc(-c3cnn(COP(=O)(OC(C)(C)C)OC(C)(C)C)c3)o2)c(-c2ccccn2)n1 [Compound I-80, Di-tert-butyl-[[4-{4-(5-((1-methyl-3-(pyridine-2-yl)-1H-pyrazol-4-yl)carbamoyl)furan-2-yl)-1H-pyrazol-1-yl}methyl] phosphate]
- EC50 (IL-23p19; Homo sapiens, THP-1, 18 h): 2220 nM
- EC50 (IL-23 (p19/p40); Homo sapiens, 18 h): 2060 nM

Structure (SMILES): CN1CCN(CCn2cc(NC(=O)c3ccc(-c4cn[nH]c4)o3)c(-c3ccccn3)n2)CC1 [Compound I-112, N-(1-(2-(4-methylpiperazin-1-yl)ethyl)-3-(pyridin-2-yl)-1H-pyrazol-4-yl)-5-(1H-pyrazol-4-yl)furan-2-carboxamide]
- EC50 (IL-23p19; Homo sapiens, THP-1, 18 h): 42.8 nM
- EC50 (IL-23 (p19/p40); Homo sapiens, 18 h): 40.7 nM

Structure (SMILES): O=C(Nc1cn(CCO)nc1-c1ncccn1)c1ccc(-c2cn[nH]c2)o1 [Compound I-15, N-(1-(2-hydroxyethyl)-3-(pyrimidin-2-yl)-1H-pyrazol-4-yl)-5-(1H-pyrazol-4-yl)furan-2-carboxamide]
- EC50 (IL-23p19; Homo sapiens, THP-1, 18 h): 2230 nM
- EC50 (IL-23 (p19/p40); Homo sapiens, 18 h): 2200 nM

Structure (SMILES): O=C(Nc1cn(C2CCOCC2)nc1-c1ccccn1)c1ccc(-c2cn[nH]c2)o1 [Compound I-23, 5-(1H-pyrazol-4-yl)-N-(3-(pyridin-2-yl)-1-(tetrahydro-2H-pyran-4-yl)-1H-pyrazol-4-yl)furan-2-carboxamide]
- EC50 (IL-23p19; Homo sapiens, THP-1, 18 h): 21.7 nM
- EC50 (IL-23 (p19/p40); Homo sapiens, 18 h): 37.2 nM

Structure (SMILES): CCOCCn1cc(NC(=O)c2ccc(-c3c(C)n[nH]c3C)o2)c(-c2ccccn2)n1 [Compound I-58, 5-(3,5-dimethyl-1H-pyrazol-4-yl)-N-(1-(2-ethoxyethyl)-3-(pyridin-2-yl)-1H-pyrazol-4-yl)furan-2-carboxamide formate]
- EC50 (IL-23p19; Homo sapiens, THP-1, 18 h): 2810 nM
- EC50 (IL-23 (p19/p40); Homo sapiens, 18 h): 27500 nM

Structure (SMILES): CCO[C@H]1C[C@@H](n2cc(NC(=O)c3csc(-c4cnn(COCC[Si](C)(C)C)c4F)n3)c(-c3ccccn3)n2)C1 [II-71, N-(1-((1s,3s)-3-ethoxycyclobutyl)-3-(pyridin-2-yl)-1H-pyrazol-4-yl)-2-(5-fluoro-1-((2-(trimethylsilyl)ethoxy)methyl)-1H-pyrazol-4-yl)thiazole-4-carboxamide]
- EC50 (IL-23p19; Homo sapiens, THP-1, 18 h): 49600 nM
- EC50 (IL-23 (p19/p40); Homo sapiens, 18 h): 10400 nM

Structure (SMILES): O=C(Nc1cn(CC(F)(F)F)nc1-c1ccccn1)c1ccc(-c2cn[nH]c2)o1 [Compound I-117, 5-(1H-pyrazol-4-yl)-N-(3-(pyridin-2-yl)-1-(2,2,2-trifluoroethyl)-1H-pyrazol-4-yl)furan-2-carboxamide]
- EC50 (IL-23p19; Homo sapiens, THP-1, 18 h): 284 nM
- EC50 (IL-23 (p19/p40); Homo sapiens, 18 h): 25.7 nM

Structure (SMILES): CCOCCn1cc(NC(=O)c2ccc(-c3cnn(COP(=O)(O)O)c3)o2)c(-c2ccccn2)n1 [Compound I-55, sodium (4-(5-((1-(2-ethoxyethyl)-3-(pyridin-2-yl)-1H-pyrazol-4-yl)carbamoyl)furan-2-yl)-1H-pyrazol-1-yl)methyl phosphate]
- EC50 (IL-23p19; phosphate): 1200 nM
- EC50 (IL-23 (p19/p40); phosphate): 801 nM

Structure (SMILES): O=C(Nc1cn(C2COC2)nc1-c1ccccn1)c1ccc(-c2cn[nH]c2)o1 [Compound I-25, N-(1-(oxetan-3-yl)-3-(pyridin-2-yl)-1H-pyrazol-4-yl)-5-(1H-pyrazol-4-yl)furan-2-carboxamide]
- EC50 (IL-23p19; Homo sapiens, THP-1, 18 h): 57.1 nM
- EC50 (IL-23 (p19/p40); Homo sapiens, 18 h): 44.1 nM

Structure (SMILES): O=C(Nc1cn(C2CN(C(=O)N3CCCC3)C2)nc1-c1ccccn1)c1ccc(-c2cn[nH]c2)o1 [Compound I-93, 5-(1H-Pyrazol-4-yl)-N-{3-(pyridine-2-yl)-1-(pyrrolidine-1-carbonyl)azetidin-3-yl}-1H-pyrazol-4-yl)furan-2-carboxamide, formate salt]
- EC50 (IL-23p19; Homo sapiens, THP-1, 18 h): 10.8 nM
- EC50 (IL-23 (p19/p40); Homo sapiens, 18 h): 8 nM

Structure (SMILES): COCCn1cc(NC(=O)c2ccc(-c3cnn(COP(=O)(O)OC(C)(C)C)c3)o2)c(-c2ccccn2)n1 [Compound I-11, tert-butyl ((4-(5-((1-(2-methoxyethyl)-3-(pyridin-2-yl)-1H-pyrazol-4-yl)carbamoyl)furan-2-yl)-1H-pyrazol-1-yl)methyl) hydrogen phosphate]
- EC50 (IL-23p19; Homo sapiens, THP-1, 18 h): 4840 nM
- EC50 (IL-23 (p19/p40); Homo sapiens, 18 h): 5190 nM

Structure (SMILES): O=C(Nc1cn([C@H]2C[C@@H](OCC(F)(F)F)C2)nc1-c1ncccc1F)c1ccc(-c2cn[nH]c2)o1 [Compound I-152, N-(3-(3-fluoropyridin-2-yl)-1-((1s,3s)-3-(2,2,2-trifluoroethoxy)cyclobutyl)-1H-pyrazol-4-yl)-5-(1H-pyrazol-4-yl)furan-2-carboxamide formate]
- EC50 (IL-23p19; Homo sapiens, THP-1, 18 h): 31.9 nM
- EC50 (IL-23 (p19/p40); Homo sapiens, 18 h): 71.6 nM
